According to publication PMC10053770, “Assessment of the Pharmacokinetics, Disposition, and Duration of Action of the Tumour-Targeting Peptide CEND-1” (International Journal of Molecular Sciences, 2023):
Bridges are numbered along the chain shown (N, C = ends). Where no end group is shown, it is not given here.

System: HCCs of TGFα/c-myc mice
Experiment: Tumour penetration assessment with Evans blue
Assay type: in vivo, mouse
Conditions: 4 μmol/kg peptide i.v.; Evans blue 33 mg/kg i.v. 24 h later; photometric quantification; n = 11 tumours from four animals
Description: Homozygous metallothionein/TGFα and albumin/c-myc single transgenic mice in CD13B6CBA background were crossed to generate the male TGFα/c-myc bitransgenic mice, as previously described. Hepatocarcinogenesis was accelerated by giving the mice ZnCl2 (via the drinking water) to induce the expression of TGFα. The animals were inspected every 2 to 3 days. To detect and monitor the endogenously formed HCCs in the TGFα/c-myc mice, gadoxetic acid (Gd-EOB-DTPA)-enhanced MRI was performed on a 3T MRI scanner (Siemens Magnetom Trio, Siemens Medical Solutions) as described recently. Mice with HCC as identified by Gd-EOB-DTPA-enhanced MRI were used in the subsequent experiments.
TGFα/c-myc mice with confirmed liver tumours according to Gd-EOB-DTPA […]-enhanced MRI or nude mice with HepG2 tumours received iRGD/CEND-1 or RGD control peptide (4 μmol/kg each), or PBS by tail vein injection. […] Another 30 min later, the mice were terminally perfused with Ringer solution by cannulation of the left heart ventricle. Organs were inspected macroscopically following laparotomy, and the liver, tumour and other organs were excised. Evans blue was extracted from tissues in N,N-dimethylformamide for 24 h at 37 °C and quantified spectrophotometrically (Beckman Coulter DU 800, Beckman Coulter, Brea, CA, USA) at 600 nm.

CRGDDGPKC (disulfide 1-9 (inferred)) [RGD control peptide, RGD control peptide (…)]
increase in Evans blue in the tumour tissue: no effect
